Measurements taken from patent US6956046B2, “4-hydroxypiperidine derivatives having analgesic activity” (priority 2001, dated 2005).

How the values were obtained:
[1] = system: formalin-induced nociceptive response in rats; assay: Inhibitory effect on the formalin-induced nociceptive response in rats; assay type: in vivo, rat; conditions: oral, 30 minutes before subcutaneous formalin; probit method
Protocol: [Inhibitory Effect on the Formalin-induced Nociceptive Response in Rats]
The experiment was undertaken by the method disclosed by Doak et al., Eur. J. Pharmacol. 281:311, 1995. Specifically, 50 μL of 0.5% formalin solution was subcutaneously injected into the left foot pad of the rat, and then each behavior of the rat consisting of the licking or biting of the pad immediately following the injection was checked with a stopwatch for its duration, and its cumulative duration was recorded at five minute intervals. The nociceptive response observed in 10 minutes after the injection was termed a first-phase response while the response observed between 10 minutes and 45 minutes after the injection was termed a second-phase response. The test compound was orally applied to the rat 30 minutes before the subcutaneous injection of formalin. Then, the inhibitory effect of the test compound on the nociceptive response induced by the formalin injection was calculated according to the following formula and 30% inhibition dose (ED30 value) was determined by the probit method. To mention, for illustration, ED30 value of carbamazepine was 27 mg/kg. Percent inhibition (%)=[(PRcontrol−PRtest)/PRcontrol]×100 wherein PRtest is the response time (sec) of the test group which received formalin and the test compound, while PRcontol is the response time of the control group which. received formalin and vehicle.

[2] = system: rat model made by loosely constricting the sciatic nerve; assay: Efficacy in the rat model made by loosely constricting the sciatic nerve (von Frey response threshold); assay type: in vivo; conditions: for Mean threshold (g) Injured foot (left) / Mean threshold (g) Normal foot (right): one hour after dosing
Protocol: [Efficacy in the Rat Model Made by Loosely Constricting the Sciatic Nerve]
Preparation of the rat pain model based on the constriction of the sciatic nerve was performed by the method introduced by Bennett et al. (“Pain,” 33:87, 1988). Specifically, the rat was anesthetized with i.p. injection of pentobarbital sodium at 40 mg/kg; the overlying skin was cut open; and the left biceps femoris muscle was bluntly separated. The sciatic nerve was isolated from surrounding tissues; it was gently constricted at four sites about 1 mm apart from each other by the use of surgical gut sutures (4-0 or 3-0 chromic gut); the operated part was closed; and the rat was returned to its cage for further feeding. For the rat belonging to the sham-surgery group, the same operation was performed except that the sciatic nerve was left untouched. Two weeks after the surgery, the response threshold to a mechanical stimulus consisting of touch with von Frey filaments was determined. The test proceeded as follows: the test compound was orally applied to the rat having the sciatic nerve constricted; one hour later, von Frey hairs were applied against the foot pad (spots ranging from heel to the mid-point of foot) one after another in an ascending order of their stiffness; if the rat raises its foot when a certain von Frey hair was applied, the stimulus intensity of that hair was taken as the response threshold (maximum stimulus intensity being 28.84 g).

[3] = system: Wistar Hannover female rats; assay: Toxicological study, oral, rats; assay type: in vivo, rat
Protocol: The compounds of Example 8 or Example 12 were orally given to 6 week-old Wistar Hannover female rats at 40 mg/kg/day.
The compound of Example 29 was orally given to 6 week-old Wistar Hannover female rats at 400 mg/Kg/day once daily for 14 days, respectively.

[4] = system: rhesus male monkeys; assay: Toxicological study, oral, 14 days, monkeys; assay type: in vivo, rhesus monkey; conditions: for survival: until 24 hours after final administration
Protocol: The compound Example 12 or Example 29 were orally given to 3 year-old rhesus male monkeys at 20 mg/Kg/day and 40 mg/Kg/day, respectively, once daily for 14 days.

[5] = system: rhesus male monkey; assay: Holter ECG test; assay type: in vivo; conditions: oral 80 mg/Kg, 4 year-old rhesus male monkey
Protocol: In Holter ECG test, the compound of Example 12 or Example 29 were orally given to 4 year-old rhesus male monkey at 80 mg/Kg. There was no effect in electrocardiogram.

[6] = Pharmacokinetics: plasma concentration after a single oral administration; assay type: in vivo; conditions: male rhesus monkey
Excerpt: The compound of Example 12 or Example 29 were studied about time-course profile of plasma concentration after a single oral administration to 3 or 4 year-old male rhesus monkey. […] Therefore, it can be considered to cause unlikely the drug-drug interaction by the compounds. […] Therefore, it can be considered that the compounds are unlikely metabolized by first pass effect.

[7] = system: human-drug metabolizing enzymes; assay: Inhibitory effect on human-drug metabolizing enzymes; assay type: in vitro ADME
[8] = Metabolic stability in human liver microsomes and hepatocytes; assay type: in vitro ADME
[9] = Metabolic stability in monkey liver microsomes and hepatocytes; assay type: in vitro ADME
[10] = Metabolic stability in dog liver microsomes and hepatocytes; assay type: in vitro ADME
[11] = Metabolic stability in rat liver microsomes and hepatocytes; assay type: in vitro ADME
[12] = oral 40 mg/kg/day, 6 week-old female rats
[13] = oral 40 mg/kg/day, 6 week-old female rats, examination period
[14] = oral 20 mg/Kg/day once daily for 14 days
[15] = oral 400 mg/Kg/day once daily for 14 days
[16] = oral 40 mg/Kg/day once daily for 14 days

Cl.N#Cc1ccc(CCN2CCC(O)(COc3ccc(C(N)=O)cc3)CC2)cc1
melting point: 251 to 254.9 °C

CN(CC1(O)CCN(CCc2ccc(C#N)cc2)CC1)c1cccc(C(=O)O)c1.Cl
melting point: 125.5 to 129.7 °C

CN(CC1(O)CCN(CCc2ccc(C#N)cc2)CC1)c1ccccc1C(=O)O.Cl
melting point: 195.3 to 200.6 °C

CN(CC1(O)CCN(CCc2ccc(C#N)cc2)CC1)c1ccc([N+](=O)[O-])cc1.Cl
melting point: 169.8 to 173.6 °C

Cl.N#Cc1ccc(CCN2CCC(O)(CNc3ccc(C(=O)O)cc3)CC2)cc1
melting point: 247.7 to 253.2 °C

CN(CC1(O)CCN(CCc2ccc(S(C)(=O)=O)cc2)CC1)c1ccc(C(=O)O)cc1.Cl
melting point: 246.5 to 249.6 °C

CN(CC1(O)CCN(CCc2ccccc2)CC1)c1ccc(C(=O)O)cc1.Cl
melting point: 242.5 to 245 °C

CN(CC1(O)CCN(CCc2cccc(C#N)c2)CC1)c1ccc(C(=O)O)cc1.Cl
melting point: 166.8 to 176.4 °C

CN(CC1(O)CCN(CCc2ccccc2C#N)CC1)c1ccc(C(=O)O)cc1.Cl
melting point: 197.2 to 222.4 °C

Cl.N#Cc1ccc(CCN2CCC(O)(COc3ccc(O)cc3)CC2)cc1
melting point: 253 to 255.6 °C

COC(=O)c1ccc(OCC2(O)CCN(CCc3ccc(C#N)cc3)CC2)cc1.Cl
melting point: 183.7 to 189.7 °C

NC(=O)N1c2ccccc2C=Cc2ccccc21 [Carbamazepine, carbamazepine, reference compound]
ED30 value (30% inhibition dose) [1]: 27 mg/kg
Mean threshold (g) Injured foot (left) ([2]; dose 30 mg/kg oral): 9.01 g
Mean threshold (g) Normal foot (right) ([2]; dose 30 mg/kg oral): 20.53 g
threshold of the injured paw to a mechanical stimulus (in words) ([2]; injured side): significantly raised
response threshold of the normal paw (in words) ([2]; normal side): significantly raised

N#Cc1ccc(CCN2CCC(O)(COc3ccc(C(N)=O)cc3)CC2)cc1 [Example 5, 4-(4-carbamoylphenoxymethyl)-1-[2-(4-cyanophenyl)ethyl]-piperidin-4-ol]
melting point: 192.1 to 193.2 °C

N#Cc1ccc(CCN2CCC(O)(COc3ccc([N+](=O)[O-])cc3)CC2)cc1 [Example 6, 1-[2-(4-cyanophenyl)ethyl)-4-(4-nitrophenoxymethyl)piperidin-4-ol]
melting point: 134.7 to 156.7 °C

Cl.N#Cc1ccc(CCN2CCC(O)(COc3ccc(CO)cc3)CC2)cc1 [Example 8, 1-[2-(4-cyanophenyl)ethyl]-4-(4-hydroxymethylphenoxymethyl)piperidin-4-ol hydrochloride]
general appearance [3, 12]: no abnormalities
survival [3, 13]: all the rats survived

Cl.N#Cc1ccc(CCN2CCC(O)(COc3ccc([N+](=O)[O-])cc3)CC2)cc1 [Example 11, 1-[2-(4-cyanophenyl)ethyl]-4-(4-nitrophenoxymethyl)piperidin-4-ol hydrochloride]
ED30 value (30% inhibition dose) [1]: 0.047 mg/kg
melting point: 219.6 to 221.3 °C

Cl.N#Cc1ccc(CCN2CCC(O)(COc3ccc(C(=O)O)cc3)CC2)cc1 [Example 12, 4-{1-[2-(4-cyanophenyl)ethyl]-4-hydroxypiperidin-4-ylmethoxy}benzoic acid hydrochloride]
ED30 value (30% inhibition dose) [1]: 2.0 mg/kg
Mean threshold (g) Injured foot (left) ([2]; dose 1 mg/kg oral): 7.96 g
Mean threshold (g) Normal foot (right) ([2]; dose 1 mg/kg oral): 14.29 g
Mean threshold (g) Injured foot (left) ([2]; dose 3 mg/kg oral): 8.92 g
Mean threshold (g) Normal foot (right) ([2]; dose 3 mg/kg oral): 14.71 g
Mean threshold (g) Injured foot (left) ([2]; dose 10 mg/kg oral): 10.96 g
Mean threshold (g) Normal foot (right) ([2]; dose 10 mg/kg oral): 14.29 g
general appearance [3, 12]: no abnormalities
survival [3, 13]: all the rats survived
general appearances, body weight gains and food consumptions [4, 14]: no abnormalities
hematology, biochemistry, organ weight, and histopathology [4, 14]: No abnormal findings
survival [4, 14]: All the monkeys survived
effect in electrocardiogram [5]: no effect
bioavailability [6]: very good bioavailability
maximum plasma concentration (Cmax) and area under the plasma concentration-time curve (AUC) versus dose [6]: increased almostly in proportion to the doses
inhibitory effect on human-drug metabolizing enzymes [7]: no serious inhibitory effect
metabolic stability [8]: metabolically stable
metabolic stability [9]: metabolically stable
metabolic stability [10]: metabolically stable
metabolic stability [11]: metabolically stable

CN(CC1(O)CCN(CCc2ccc(C#N)cc2)CC1)c1cccc(C(=O)O)c1 [Example 15, 3-({1-[2-(4-cyanophenyl)ethyl]-4-hydroxypiperidin-4-ylmethyl}methylamino)benzoic acid]
melting point: 181.9 to 189.1 °C

CN(CC1(O)CCN(CCc2ccc(C#N)cc2)CC1)c1ccc([N+](=O)[O-])cc1 [Example 16, 4-[2-(4-hydroxy-4-{[methyl(4-nitrophenyl)amino]methyl}piperidin-1-yl)ethyl]benzonitrile]
melting point: 98.3 to 108.1 °C

CN(CC1(O)CCN(CCc2ccc(C#N)cc2)CC1)c1ccc(-c2nnn[nH]2)cc1 [Example 17, 4-{2-[4-hydroxy-4-({methyl[4-(1H-tetrazol-5-yl)phenyl]-amino}methyl)piperidin-1-yl]ethyl}benzonitrile]
melting point: 159.7 to 171.8 °C

CN(CC1(O)CCN(CCc2ccc(C#N)cc2)CC1)c1ccccc1C(=O)O [Example 19, 2-({1-[2-(4-cyanophenyl)ethyl]-4-hydroxypiperidin-4-ylmethyl}methylamino)benzoic acid]
melting point: 106.5 to 116.2 °C

CN(CC1(O)CCN(CCc2ccc(C#N)cc2)CC1)c1ccc(C(=O)O)cc1.Cl [Example 29, 4-({1-[2-(4-cyanophenyl)ethyl]-4-hydroxypiperidin-4-ylmethyl}methylamino)benzoic acid monohydrochloride]
ED30 value (30% inhibition dose) [1]: 1.2 mg/kg
Mean threshold (g) Injured foot (left) ([2]; dose 1 mg/kg oral): 5.22 g
Mean threshold (g) Normal foot (right) ([2]; dose 1 mg/kg oral): 14.12 g
Mean threshold (g) Injured foot (left) ([2]; dose 3 mg/kg oral): 7.09 g
Mean threshold (g) Normal foot (right) ([2]; dose 3 mg/kg oral): 14.49 g
Mean threshold (g) Injured foot (left) ([2]; dose 10 mg/kg oral): 8.61 g
Mean threshold (g) Normal foot (right) ([2]; dose 10 mg/kg oral): 15.49 g
general appearances, body weight gains and food consumptions [3, 15]: no abnormalities
hematology, biochemistry, organ weight, and histopathology [3, 15]: No abnormal findings
survival ([3]; oral 400 mg/Kg/day once daily for 14 days, until 24 hours after final administration): All the rats survived
general appearances, body weight gains and food consumptions [4, 16]: no abnormalities
hematology, biochemistry, organ weight, and histopathology [4, 16]: No abnormal findings
survival [4, 16]: All the monkeys survived
effect in electrocardiogram [5]: no effect
bioavailability [6]: very good bioavailability
maximum plasma concentration (Cmax) and area under the plasma concentration-time curve (AUC) versus dose [6]: increased almostly in proportion to the doses
inhibitory effect on human-drug metabolizing enzymes [7]: no serious inhibitory effect
metabolic stability [8]: metabolically stable
metabolic stability [9]: metabolically stable
metabolic stability [10]: metabolically stable
metabolic stability [11]: metabolically stable
